Results as given in patent US8193252B1, “Mesoprogestins (progesterone receptor modulators) for the treatment and prevention of benign hormone dependent gynecological disorders” (Bayer Pharma AG, priority 1999, dated 2012).

How the values were obtained:
[1] = test system: endometriosis; assay: Sequential treatment of endometriosis with an LHRH agonist and J867; format: in vivo, human
Description: Women with endometriosis are treated for 2-3 months with an LHRH agonist such as Lupron. After the cessation of LHRH-agonist therapy women are treated for the next 3-6 months with J 867 in order to avoid osteoprorosis induced by prolonged treatment with LHRH agonist. During treatment with 5-50 mg J 867 the therapeutic effects of the LHRH-agonist are maintained.

[2] = test system: cyclic guinea pigs; settings: cited from earlier work
[3] = test system: pregnant guinea pigs; assay: Abortifacient / labor inducing activity in pregnant guinea pigs; format: in vivo, guinea pig; settings: for abortifacient activity ED50, guinea pig: s.c., treatment day 43-44 of pregnancy, autopsy day 50; for ranking of abortifacient activity: treated on days 43 and 44 of pregnancy, observed until day 50
Description: In the guinea pig model which allows a good prediction of the effects in humans with respect to the abortifacient activity (Elger W, Beier S., Chwalisz K, Fähnrich M, Hasan S H, Henderson D, Neef G, Rohde R (1986): Studies on the mechanism of action of progesterone antagonists. J Steroid Biochem 25: 835-845) the mesoprogestins J 867, J 912, J 956, J 1042 lead up to 100 mg/kg/day to a maximal abortion rate of 20%.
The guinea pig is considered as relevant model of human gestation and parturition (Elger W, Fähnrich M, Beier S, Quing S S, Chwalisz K (1987). Endometrial and myometrial effects of progesterone antagonists in pregnant guinea pigs. Am J Obstet Gynecol 157: 1065-1074; Elger W, Neef G, Beier S, Fähnrich M, Gründel M, Heermann J, Malmendier A, Laurent D, Puri C P, Singh M M, Hasan S H, Becker H (1992). Evaluation of antifertility activities of antigestagens in animal model. In: Puri C P and Van Look P F A (eds), Current Concepts in Fertility Regulation and Reproduction. Wiley Eastern Limited, New Delhi, pp. 303-328; Elger W, Faehnrich M, Beier S, Qing S S, Chwalisz K (1986). Mechanism of action of progesterone antagonists in pregnant guinea pigs. Contraception 6: 47-62; Elger W, Chwalisz K, Faehnrich M, Hasan S H, Laurent D, Beier S, Ottow E, Neef G, Garfield R E (1990). Studies on labor-conditioning and labor-inducing effects of antiprogesterones in animal model. In: Garfield R E (eds), Norwell, pp. 153-175.) The mechanism of abortion of antiprogestins in this species is the initiation of labor and finally the expulsion of the conceptus. Abortifacient effects in the rat during very early pregnancy reflect inhibitory effects on nidation rather than initiation of uterine contractions. Studies in the rat model lead to “overestimation” of the potential of antiprogestins to terminate pregnancy in humans. Conversely, in the guinea pig model, irrespective of the antiprogestin doses, there were high rates of ongoing pregnancies similar to the situation in humans (Elger et al., Current Concepts in Fertility Regulation and Reproduction cited above). Furthermore, in both humans and guinea pigs, there is a strong synergism between antiprogestins and prostaglandins with respect the induction of labor (see the articles cited above and Elger W, Beier S (1983). Prostaglandine and Antigestagene für den Schwangerschaftsabbruch (Prostaglandins and antigestagens for pregnancy termination). German Patent DE 3337450 12; Van Look P, Bygdeman M (1989). Antiprogestational steroids: a new dimension in human fertility regulation. Oxford reviews of reproductive medicine 11: 2-60).
Pregnant guinea pigs were treated on days 43 and 44 of pregnancy and observed until day 50 of gestation. For the effects of various treatments see table 1 and FIG. 2. It is typical for this model that expulsions occur with a delay of several days after treatment. It can be seen that Mesoprogestins have a much reduced abortifacient activity compared to RU486. […] The differences with respect to abortifacient activity seem qualitative ones. It is not possible to overcome the low abortifacient activity of a Mesoprogestin by the use of a higher dose.
FIG. 2 is graphs showing data on the assessment on cumulative rate of abortion until day 50 in guinea pigs treated on days 43 and 44 of pregnancy.

[4] = molecular target: T1, PR (progesterone receptor) (Homo sapiens, UniProt P06401); assay: Relative binding activity (RBA) at PR, progesterone = 100%; settings: by Kaufmann
T1 sequence (P06401 1-933): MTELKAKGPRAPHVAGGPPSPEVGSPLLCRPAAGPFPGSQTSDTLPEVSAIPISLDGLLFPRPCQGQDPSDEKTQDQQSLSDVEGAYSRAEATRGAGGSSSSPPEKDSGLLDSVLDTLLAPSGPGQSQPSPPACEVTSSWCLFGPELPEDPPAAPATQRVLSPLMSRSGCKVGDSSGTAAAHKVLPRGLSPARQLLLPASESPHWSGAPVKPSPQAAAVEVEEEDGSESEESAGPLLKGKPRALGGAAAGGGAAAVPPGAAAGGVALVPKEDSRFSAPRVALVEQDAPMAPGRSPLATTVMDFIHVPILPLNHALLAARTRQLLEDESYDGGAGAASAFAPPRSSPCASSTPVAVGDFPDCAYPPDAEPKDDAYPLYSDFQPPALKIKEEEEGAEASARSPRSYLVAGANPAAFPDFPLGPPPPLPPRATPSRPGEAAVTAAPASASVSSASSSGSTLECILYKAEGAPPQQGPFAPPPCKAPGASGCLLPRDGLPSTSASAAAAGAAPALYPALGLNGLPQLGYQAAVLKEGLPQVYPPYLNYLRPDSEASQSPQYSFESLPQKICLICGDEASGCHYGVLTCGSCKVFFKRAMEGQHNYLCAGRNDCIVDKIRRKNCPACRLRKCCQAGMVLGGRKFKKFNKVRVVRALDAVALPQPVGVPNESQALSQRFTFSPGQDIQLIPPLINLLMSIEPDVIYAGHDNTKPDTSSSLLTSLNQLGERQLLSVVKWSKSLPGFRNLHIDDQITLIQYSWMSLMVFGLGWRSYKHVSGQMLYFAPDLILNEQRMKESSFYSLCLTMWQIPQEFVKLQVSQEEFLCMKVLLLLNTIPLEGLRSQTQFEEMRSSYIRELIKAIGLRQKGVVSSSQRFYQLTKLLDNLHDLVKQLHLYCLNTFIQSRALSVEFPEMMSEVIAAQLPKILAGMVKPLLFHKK

[5] = test system: endometriosis; assay: Treatment of endometriosis in women; format: in vivo, human; settings: women with endometriosis, 3-6 months, 5-50 mg
[6] = as described in DE 43 32 283 / DE 43 32 284; cited from earlier work
[7] = test system: uterine fibroids; assay: Treatment of uterine fibroids (Example 5); format: in vivo, human; settings: 3-6 months, 5-50 mg
[8] = as described in DE 43 32 283 / DE 43 32 284; cited from earlier work; remark: listed apart in the source

COC[C@]1(OC)CC[C@H]2[C@@H]3CCC4=CC(=O)CCC4=C3[C@@H](c3ccc(/C=N/O)cc3)C[C@@]21C [J867, 4-[17β-Methoxy-17α-(methoxymethyl)-3-oxoestra-4,9-dien-11β-yl]benzaldehyd-(1E)-oxim]
therapeutic effects of the LHRH-agonist during following treatment ([1]; 5-50 mg for 3-6 months after 2-3 months LHRH agonist): maintained
estrogen deficiency ([1]; women with endometriosis): does not produce estrogen deficiency
uterine weights [2]: reduced uterine weights
abortifacient activity ED50, guinea pig [3]: >100 mg/animal/day
ranking of abortifacient activity [3]: RU486>J956>J867, J912>J1042
RBA (%) PR [4]: 302%
pelvic pain during treatment [5]: reduction of pelvic pain was observed
antiprogestagenic activity [6]: strong
pelvic pain during treatment [7]: reduction of pelvic pain was observed
antiglucocorticoid activity compared to RU 486 [8]: markedly reduced

CCSC(=O)O/N=C/c1ccc([C@H]2C[C@@]3(C)[C@@H](CC[C@]3(COC)OC)[C@@H]3CCC4=CC(=O)CCC4=C32)cc1 [J1042, 4-[17β-Methoxy-17α-(methoxymethyl)-3-oxoestra-4,9-dien-11β-yl]benzaldehyd-(1E)-[O-(ethylthio)carbonyl]oxim]
abortifacient activity ED50, guinea pig [3]: >>100 mg/animal/day
ranking of abortifacient activity [3]: RU486>J956>J867, J912>J1042
RBA (%) PR [4]: 164%

CCNC(=O)O/N=C/c1ccc([C@H]2C[C@@]3(C)[C@@H](CC[C@]3(COC)OC)[C@@H]3CCC4=CC(=O)CCC4=C32)cc1 [J956, 4-[17β-Methoxy-17α-(methoxymethyl)-3-oxoestra-4,9-dien-11β-yl]benzaldehyd-(1E)-[O-(ethylamino)carbonyl]oxim]
abortifacient activity ED50, guinea pig [3]: 20 mg/animal/day
ranking of abortifacient activity [3]: RU486>J956>J867, J912>J1042
RBA (%) PR [4]: 345%
